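Each compound was tested at five concentrations against cells in 96-well plates for 48 hours. At the TGI there is no net growth.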
Legend:
Experiment in all cases: NCI tumour cell line growth inhibition, 48 h
SW-620 colon = test system: SW-620 colon
SF-268 CNS = test system: SF-268 CNS
786-0 renal = test system: 786-0 renal
OVCAR-8 ovarian = test system: OVCAR-8 ovarian
HOP-62 NSCLC = test system: HOP-62 NSCLC
NCI/ADR-RES ovarian = test system: NCI/ADR-RES ovarian
DU-145 prostate = test system: DU-145 prostate
NCI-H460 lung = test system: NCI-H460 lung
MDA-MB-231 breast = test system: MDA-MB-231 breast
SF-295 CNS = test system: SF-295 CNS
HT29 colon = test system: HT29 colon
OVCAR-3 ovarian = test system: OVCAR-3 ovarian
NCI-H23 lung = test system: NCI-H23 lung
CAKI-1 renal = test system: CAKI-1 renal
PC-3 prostate = test system: PC-3 prostate
UO-31 renal = test system: UO-31 renal
SK-OV-3 ovarian = test system: SK-OV-3 ovarian
HS 578T breast = test system: HS 578T breast
NCI-H226 lung = test system: NCI-H226 lung
UACC-62 melanoma = test system: UACC-62 melanoma
NCI-H522 lung = test system: NCI-H522 lung
COLO 205 colon = test system: COLO 205 colon
KM12 colon = test system: KM12 colon
M14 melanoma = test system: M14 melanoma
MOLT-4 leukemia = test system: MOLT-4 leukemia
K-562 leukemia = test system: K-562 leukemia
OVCAR-4 ovarian = test system: OVCAR-4 ovarian
SNB-75 CNS = test system: SNB-75 CNS
TK-10 renal = test system: TK-10 renal
HOP-92 NSCLC = test system: HOP-92 NSCLC
MDA-N = test system: MDA-N
U251 CNS = test system: U251 CNS
HCT-15 colon = test system: HCT-15 colon
CCRF-CEM leukemia = test system: CCRF-CEM leukemia
A498 renal = test system: A498 renal
SK-MEL-28 melanoma = test system: SK-MEL-28 melanoma
LOX IMVI melanoma = test system: LOX IMVI melanoma
HCT-116 colon = test system: HCT-116 colon
MDA-MB-435 = test system: MDA-MB-435
IGROV1 ovarian = test system: IGROV1 ovarian
HL-60(TB) leukemia = test system: HL-60(TB) leukemia
MCF7 breast = test system: MCF7 breast
SN12C renal = test system: SN12C renal
MALME-3M melanoma = test system: MALME-3M melanoma
OVCAR-5 ovarian = test system: OVCAR-5 ovarian
SNB-19 CNS = test system: SNB-19 CNS
A549 NSCLC = test system: A549 NSCLC
SK-MEL-5 melanoma = test system: SK-MEL-5 melanoma
T-47D breast = test system: T-47D breast
BT-549 breast = test system: BT-549 breast
UACC-257 melanoma = test system: UACC-257 melanoma
EKVX NSCLC = test system: EKVX NSCLC
SF-539 CNS = test system: SF-539 CNS
RXF 393 renal = test system: RXF 393 renal
RPMI-8226 leukemia = test system: RPMI-8226 leukemia
SR leukemia = test system: SR leukemia
ACHN renal = test system: ACHN renal
HCC-2998 colon = test system: HCC-2998 colon
SK-MEL-2 melanoma = test system: SK-MEL-2 melanoma

Clc1ccc(C2c3ccccc3-c3nc4ccccc4n32)cc1 (stereo not drawn) showed a TGI (SW-620 colon) of over 100 µM, a TGI (SF-268 CNS) of over 63.9 µM and a TGI (786-0 renal) of 51 µM. For the same compound, the TGI (OVCAR-8 ovarian) was over 79.5 µM, the TGI (HOP-62 NSCLC) was 62.8 µM and the TGI (NCI/ADR-RES ovarian) was over 68.2 µM. The TGI (DU-145 prostate) was over 100 µM, the TGI (NCI-H460 lung) was over 100 µM and the TGI (MDA-MB-231 breast) was over 100 µM. The TGI (SF-295 CNS) was over 36.6 µM, the TGI (HT29 colon) was over 88.9 µM and the TGI (OVCAR-3 ovarian) was 37.2 µM. For the same compound, the TGI (NCI-H23 lung) was over 100 µM, the TGI (CAKI-1 renal) was over 100 µM and the TGI (PC-3 prostate) was over 77.1 µM. The TGI (UO-31 renal) was over 60.5 µM, the TGI (SK-OV-3 ovarian) was over 39 µM and the TGI (HS 578T breast) was over 100 µM. The TGI (NCI-H226 lung) was over 64.5 µM, the TGI (UACC-62 melanoma) was over 69.4 µM and the TGI (NCI-H522 lung) was 67.9 µM. For the same compound, the TGI (COLO 205 colon) was over 100 µM, the TGI (KM12 colon) was over 100 µM and the TGI (M14 melanoma) was 99 µM. It also gave a TGI (MOLT-4 leukemia) of over 51.7 µM, a TGI (K-562 leukemia) of over 100 µM and a TGI (OVCAR-4 ovarian) of over 73 µM. For the same compound, the TGI (SNB-75 CNS) was over 100 µM, the TGI (TK-10 renal) was over 100 µM and the TGI (HOP-92 NSCLC) was over 100 µM. For the same compound, the TGI (MDA-N) was over 100 µM, the TGI (U251 CNS) was over 100 µM and the TGI (HCT-15 colon) was over 100 µM. For the same compound, the TGI (CCRF-CEM leukemia) was over 100 µM, the TGI (A498 renal) was over 79.9 µM and the TGI (SK-MEL-28 melanoma) was over 100 µM. For the same compound, the TGI (LOX IMVI melanoma) was 59.2 µM, the TGI (HCT-116 colon) was over 53.3 µM and the TGI (MDA-MB-435) was over 100 µM. It also gave a TGI (IGROV1 ovarian) of over 86.1 µM, a TGI (HL-60(TB) leukemia) of over 83.3 µM and a TGI (MCF7 breast) of over 68.1 µM. For the same compound, the TGI (SN12C renal) was over 100 µM, the TGI (MALME-3M melanoma) was 82.3 µM and the TGI (OVCAR-5 ovarian) was over 75 µM. The TGI (SNB-19 CNS) was over 64.8 µM, the TGI (A549 NSCLC) was over 78.7 µM and the TGI (SK-MEL-5 melanoma) was over 100 µM. It also gave a TGI (T-47D breast) of over 100 µM, a TGI (BT-549 breast) of over 100 µM and a TGI (UACC-257 melanoma) of over 100 µM. The TGI (EKVX NSCLC) was over 73.9 µM, the TGI (SF-539 CNS) was over 95.4 µM and the TGI (RXF 393 renal) was 17.8 µM. The TGI (RPMI-8226 leukemia) was over 65 µM, the TGI (SR leukemia) was over 54.4 µM and the TGI (ACHN renal) was over 100 µM. The TGI (HCC-2998 colon) was over 75.2 µM and the TGI (SK-MEL-2 melanoma) was over 65.4 µM.
Compound CCCOc1cc2c(cc1O)CC[C@@H]1[C@@H]2CC[C@]2(C)[C@@H](O)CC[C@@H]12 has a TGI (SW-620 colon) of over 35.5 µM, a TGI (SF-268 CNS) of over 59.7 µM and a TGI (786-0 renal) of 30.5 µM. It also gave a TGI (OVCAR-8 ovarian) of over 59.1 µM, a TGI (HOP-62 NSCLC) of 14.1 µM and a TGI (NCI/ADR-RES ovarian) of 39 µM. It also gave a TGI (DU-145 prostate) of 27.2 µM, a TGI (NCI-H460 lung) of 26.5 µM and a TGI (MDA-MB-231 breast) of 27.7 µM. The TGI (SF-295 CNS) was 14.7 µM, the TGI (HT29 colon) was 25.9 µM and the TGI (OVCAR-3 ovarian) was over 46.2 µM. The TGI (NCI-H23 lung) was over 55.5 µM, the TGI (CAKI-1 renal) was 23.5 µM and the TGI (PC-3 prostate) was over 51.6 µM. For the same compound, the TGI (UO-31 renal) was over 57.2 µM, the TGI (SK-OV-3 ovarian) was 50.5 µM and the TGI (HS 578T breast) was 11.3 µM. It also gave a TGI (NCI-H226 lung) of 55 µM, a TGI (UACC-62 melanoma) of 30.8 µM and a TGI (NCI-H522 lung) of 3.52 µM. For the same compound, the TGI (COLO 205 colon) was 30 µM, the TGI (KM12 colon) was over 55.5 µM and the TGI (M14 melanoma) was 36.8 µM. The TGI (MOLT-4 leukemia) was 14.2 µM, the TGI (K-562 leukemia) was 5.33 µM and the TGI (OVCAR-4 ovarian) was over 65.5 µM. For the same compound, the TGI (SNB-75 CNS) was 32.4 µM, the TGI (TK-10 renal) was 54.7 µM and the TGI (HOP-92 NSCLC) was over 60.4 µM. It also gave a TGI (MDA-N) of 2.14 µM, a TGI (U251 CNS) of 34.2 µM and a TGI (HCT-15 colon) of over 35.3 µM. For the same compound, the TGI (CCRF-CEM leukemia) was over 37.4 µM, the TGI (A498 renal) was 20.7 µM and the TGI (SK-MEL-28 melanoma) was over 50.4 µM. It also gave a TGI (LOX IMVI melanoma) of 34.5 µM, a TGI (HCT-116 colon) of 42 µM and a TGI (MDA-MB-435) of 5.91 µM. The TGI (IGROV1 ovarian) was over 100 µM, the TGI (HL-60(TB) leukemia) was 18.9 µM and the TGI (MCF7 breast) was 37.2 µM. For the same compound, the TGI (SN12C renal) was 37.8 µM, the TGI (MALME-3M melanoma) was over 100 µM and the TGI (OVCAR-5 ovarian) was over 65.4 µM. It also gave a TGI (SNB-19 CNS) of over 100 µM, a TGI (A549 NSCLC) of over 56.3 µM and a TGI (SK-MEL-5 melanoma) of 12.1 µM. The TGI (T-47D breast) was over 45 µM, the TGI (BT-549 breast) was 20.1 µM and the TGI (UACC-257 melanoma) was over 58.7 µM. For the same compound, the TGI (EKVX NSCLC) was over 57.7 µM, the TGI (SF-539 CNS) was 4.44 µM and the TGI (RXF 393 renal) was 10.4 µM. The TGI (RPMI-8226 leukemia) was 23.7 µM, the TGI (SR leukemia) was 16.7 µM and the TGI (ACHN renal) was over 56.2 µM. It also gave a TGI (HCC-2998 colon) of 17.6 µM and a TGI (SK-MEL-2 melanoma) of 11.3 µM.
